Results taken from patent US20110288082A1, “METHODS AND COMPOSITIONS FOR INHIBITION OF THE TRANSITIONAL ENDOPLASMIC RETICULUM ATPASE” (priority 2010, published 2011).
Several values for one entry are separate records, joined by “and”; a condition that tells them apart may be missing. Equal values may be shown once. Read-outs that look alike come from different tables or passages of the source.

Assays:
[1] = test system: p97-dependent Ub^G76V-GFP degradation in HeLa cells; experiment: Ub^G76V-GFP degradation (turn-over) assay; type: cell-based, human
Experimental: Ub^G76V-GFP Degradation Assay
Two GFP images with 100 ms exposure time per well were acquired and the average GFP intensity per area of a HeLa cell was determined by using MetaXpress software. Mean GFP intensity of 300-500 cells was calculated using Excel. Normalized GFP intensity was calculated using the following formula: (Test compound−Background)/(Basal GFP intensity—Background). Where: Test compound is defined as Mean GFP intensity of Ub^G76V-GFP-expressing cells treated with the test compound. Background is defined as background GFP intensity of HeLa cells. Basal GFP intensity is defined as mean GFP intensity of Ub^G76V-GFP-expressing cells treated with DMSO. […] The percent of remaining k for each compound is calculated using the following formula: (Test compound/DMSO control)*100. Where: Test_compound is defined as k determined from wells containing test compound, DMSO control is defined as k determined from wells containing DMSO.

p97 = p97 (Homo sapiens, UniProt P55072); experiment: p97 ATPase assay (Kinase Glo Plus; biomol green for compounds that interfere with luciferase); type: biochemical
Chain of p97 (P55072 2-806 limits assumed): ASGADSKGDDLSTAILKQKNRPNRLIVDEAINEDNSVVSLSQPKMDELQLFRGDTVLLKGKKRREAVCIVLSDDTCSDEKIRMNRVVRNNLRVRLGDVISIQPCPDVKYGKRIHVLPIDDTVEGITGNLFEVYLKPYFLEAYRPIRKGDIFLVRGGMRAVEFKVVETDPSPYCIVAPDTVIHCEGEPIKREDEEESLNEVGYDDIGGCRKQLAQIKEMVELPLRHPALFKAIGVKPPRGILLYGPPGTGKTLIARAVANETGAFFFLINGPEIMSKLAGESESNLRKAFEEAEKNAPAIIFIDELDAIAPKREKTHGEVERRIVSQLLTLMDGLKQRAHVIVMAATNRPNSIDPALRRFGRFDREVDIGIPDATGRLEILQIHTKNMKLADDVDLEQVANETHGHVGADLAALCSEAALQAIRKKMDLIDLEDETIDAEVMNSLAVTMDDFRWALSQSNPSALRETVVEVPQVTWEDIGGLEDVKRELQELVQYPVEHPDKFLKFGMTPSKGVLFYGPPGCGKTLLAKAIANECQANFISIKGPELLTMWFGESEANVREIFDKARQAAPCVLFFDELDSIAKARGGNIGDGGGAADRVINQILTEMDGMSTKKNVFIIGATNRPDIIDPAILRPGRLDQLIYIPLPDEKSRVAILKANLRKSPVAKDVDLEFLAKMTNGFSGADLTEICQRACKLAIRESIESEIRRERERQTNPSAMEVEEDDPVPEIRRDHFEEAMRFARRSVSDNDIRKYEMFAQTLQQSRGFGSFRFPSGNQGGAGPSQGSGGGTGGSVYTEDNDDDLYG
Experimental: Assay Buffer (20 μL of 2.5× concentration, where 1×=50 mM Tris pH 7.4, 20 mM MgCl2, 1 mM EDTA, 0.5 mM TCEP) was dispensed into each well of a 96 well plate. Purified p97 (25 μL of 50 μM) was diluted in 975 μL, of 1× Assay Buffer and 10 μL was dispensed in each well. Test compound (10 μL) or 5% DMSO (10 μL) was then added to each well and the plate was incubated at room temperature for 10 min. The ATPase assay was carried out by adding to each well 10 μL of 500 μM ATP (pH 7.5), incubating at room temperature for 60 min, and then adding 50 μL Kinase Glo Plus reagent (Promega) followed by a final 10 min incubation at room temperature in the dark. Luminescence was read on an Analyst AD (Molecular Devices). Compounds were assayed at a range of concentrations (0, 0.048, 0.24, 1.2, 6, 30 μM) in triplicate. The percent of remaining activity for each reaction was calculated using the following mathematical expression: ((Test Compound-High Control)/(Low Control-High Control))*100. Test_Compound is defined as wells containing test compound, Low_Control is defined as wells containing DMSO, High_Control is defined as wells containing no p97 protein. […] The result was expressed as mean +/− standard error. For assays with Myriad 12 and 19, 100 μL of biomol green reagent (Enzo Life Sciences) was added to each well instead of kinase Glo Plus (Promega) and absorbance at 630 nm was measured. This was done because these compounds interfered with luciferase activity. […]

[2] = Homo sapiens, HeLa, read-out: IC50 (μM) Ub^G76V-GFP turn over, p97-dependent Ub^G76V-GFP degradation turn-over assay
[3] = purified p97, ATP, 60 min room temperature, mean +/- standard error
[4] = Homo sapiens, HeLa, read-out: IC50 (μM) Ub^G76V-GFP turn over, Ub^G76V-GFP-expressing HeLa cells, degradation rate constant k from 90 to 180 min, mean +/- standard error

Structure (SMILES)	IC50 [1, 2]	IC50 (p97; [3])	IC50 [1, 4]	other results
Nc1nc(CCl)nc(Nc2cccc3ccccc23)n1 [XXX]	14 ± 3 µM	–	–	–
CC(C)Nc1nc(Nc2cccc(Cl)c2)nc2ccccc12 [XLII]	11 ± 2 µM	–	–	IC50 (p97; p97 ATPase assay): > 30 µM
Brc1ccccc1Nc1nc(NCc2ccccc2)c2ccccc2n1 [II-10]	13 ± 2 µM	–	–	IC50 (p97; p97 ATPase assay): 64 ± 24 µM
COc1cccc2c(NCc3cccs3)nc(N3CCOc4ccccc43)nc12 [XII-5]	–	1.2 ± 0.2 µM	3 ± 0.6 µM	–
Clc1cccc(Nc2nc(Nc3ccccc3)c3ccccc3n2)c1 [XXV-2]	12 ± 2 µM	–	–	IC50 (p97; p97 ATPase assay): 34 ± 16 µM
c1ccc(CNc2nc(N3CCN(Cc4ccccc4)CC3)nc3ccccc23)cc1 [XXIII]	12 ± 1 µM	–	–	IC50 (p97; p97 ATPase assay): 33 ± 8 µM
Nc1nc(Nc2cccc(Cl)c2)nc(C(Cl)Cl)n1 [XXVII]	13 ± 3 µM	–	–	–
FC(F)(F)c1ccc2c(NCc3ccccc3)nc(NCc3ccccc3)nc2c1 [VI-7]	–	9.1 ± 2 µM	19 ± 1 µM	–
CN1CCN(c2nc(NCc3ccccc3)c3ccccc3n2)CC1 [XLV]	31 ± 6 µM	–	–	IC50 (p97; p97 ATPase assay): 53 ± 18 µM
CC(Nc1nc(-c2ccccc2F)nc2ccccc12)c1ccccc1 (centres unmarked) [Cpd I-31]	15 ± 4 µM	–	–	IC50 (p97; p97 ATPase assay): > 30 µM
COc1c(Cl)cccc1Nc1nc(NCc2ccccc2)c2ccccc2n1 [V-1]	–	0.9 ± 0.2 µM	6.3 ± 1.7 µM	–
COc1ccc2c(NCc3ccccc3)nc(NCc3ccccc3)nc2c1 [VI-13]	–	5.7 ± 1 µM	42 ± 6 µM	–
CN(Cc1ccccc1)c1nc(-c2ccccc2[N+](=O)[O-])nc2ccccc12 [Cpd I-27]	11 ± 6 µM	–	–	IC50 (p97; p97 ATPase assay): 25 ± 11 µM
COc1cccc2c(NCc3ccc(F)cc3)nc(N3CCOc4ccccc43)nc12 [XII-4]	–	1.9 ± 0.4 µM	3.7 ± 0.6 µM	–
COc1cccc2c(NCc3ccccn3)nc(N3CCNc4ccccc43)nc12 [XLIII]	16 ± 2 µM	–	–	–
Cc1cc(OCC(=O)OCC(=O)C(C#N)=C2Nc3ccccc3N2)ccc1Cl [XXXVIII]	16 ± 1.4 µM	–	–	–
Brc1cccc(Nc2nc(NCc3ccccc3)c3ccccc3n2)c1 [II-15]	–	2.5 ± 0.5 µM	4.3 ± 0.8 µM	–
COc1cccc2c(NCc3ccccc3)nc(NC(N)=O)nc12 [XI-3]	108 ± 31 µM	–	–	IC50 (p97; p97 ATPase assay): 49 ± 10 µM
Cc1ccc(CNc2nc(Nc3cccc(Cl)c3)nc3ccccc23)cc1 [III-1]	–	1.4 ± 0.3 µM	12 ± 2 µM	–
COc1ccccc1CNc1nc(Nc2cccc(Cl)c2)nc2ccccc12 [III-10]	–	1.6 ± 0.4 µM	11 ± 2 µM	–
COc1cccc2c(NCc3ccccc3)nc(NCc3cccs3)nc12 [XI-14]	–	–	1.8 ± 0.3 µM	–
CN(Cc1ccccc1)c1nc(-c2ccccc2F)nc2ccccc12 [Cpd I-26]	6 ± 2 µM	–	–	IC50 (p97; p97 ATPase assay): 25 ± 4 µM
c1ccc(CNc2nc(N3CCOc4ccccc43)nc3ccccc23)cc1 [VII-3]	–	0.6 ± 0.2 µM	7 ± 1.9 µM	–
COc1ccc(CNc2nc(NCc3ccccc3)c3ccccc3n2)cc1 [IV-5]	–	3 ± 0.5 µM	1.3 ± 0.2 µM	–

Structure (SMILES)	IC50 [1, 2]	IC50 (p97; [3])	IC50 [1, 4]	other results
c1ccc(CNc2nc(N3CCCCC3)nc3ccccc23)cc1 [XXII]	7.3 ± 2 µM	–	–	–
COc1cccc2c(NCc3ccccc3)nc(N3CCc4ccccc4C3)nc12 [XI-8]	–	15 ± 3 µM	7 ± 1.3 µM	–
Cc1ccc(Nc2nc(NCc3ccccc3)c3ccccc3n2)cc1 [II-2]	–	2.2 ± 0.4 µM	6.3 ± 1.4 µM	–
Fc1ccc(CNc2nc(NCc3ccccc3)c3ccccc3n2)cc1 [IV-3]	–	2.6 ± 0.2 µM	3.4 ± 0.5 µM	–
COc1ccc(CNc2nc(-c3ccc(OC)cc3)nc3ccccc23)cc1 [I-20]	–	13 ± 4 µM	15 ± 5 µM	–
Clc1ccc(CNc2nc(Nc3cccc(Cl)c3)nc3ccccc23)cc1 [III-2]	–	2.8 ± 0.9 µM	7.6 ± 2.4 µM	–
Clc1cccc(CNc2nc(-c3ccccc3)nc3ccccc23)c1 [Cpd I-12]	17 ± 4 µM	–	–	IC50 (p97; p97 ATPase assay): 28 ± 9 µM
Fc1ccc(Nc2nc(NCc3ccccc3)c3ccccc3n2)cc1 [II-4]	–	3.8 ± 1.2 µM	9.4 ± 1 µM	–
Fc1ccccc1CNc1nc(Nc2cccc(Cl)c2)nc2ccccc12 [III-8]	–	1.8 ± 0.5 µM	7.8 ± 2.1 µM	–
Clc1cccc(Nc2nc(NCc3ccc(Br)cc3)c3ccccc3n2)c1 [III-4]	–	7.4 ± 2 µM	10 ± 3 µM	–
COc1ccc(Nc2nc(NCc3ccccc3)c3ccccc3n2)cc1 [II-6]	–	3.8 µM and 3.5 µM	4.5 ± 1.1 µM	IC50 ([1]; read-out: IC50 (μM) Ub^G76V-GFP turn over, Ub^G76V-GFP-expressing HeLa cells, degradation rate constant k from 90 to 180 min, mean +/- standard error): 4.8 ± 0.7 µM
COc1c(F)cccc1Nc1nc(NCc2ccccc2)c2ccccc2n1 [V-4]	–	1.7 ± 0.5 µM	12 ± 3 µM	–
O=[N+]([O-])c1cccc(-c2nc(NCc3ccccc3)c3ccccc3n2)c1 [I-4]	–	–	4 ± 1.6 µM	–
Cc1cccc(-c2nc(NCc3ccccc3)c3ccccc3n2)c1 [I-5]	–	4.2 ± 0.2 µM	17 ± 4 µM	–
Nc1nc(CCl)nc(Nc2ccc(Cl)cc2)n1 [XXXI]	8 ± 2 µM	–	–	–
Fc1ccccc1Nc1nc(NCc2ccccc2)c2ccccc2n1 [II-9]	–	0.85 ± 0.17 µM	10 ± 2 µM	–
Cc1ccc(Cl)cc1Nc1nc(NCc2ccccc2)c2ccccc2n1 [V-9]	–	0.8 ± 0.07 µM	7 ± 1.5 µM	–
Cc1cc(C)cc(OCC(=O)OCC(=O)C(C#N)=C2Nc3ccccc3N2)c1 [XXXVII]	13 ± 1.4 µM	–	–	–
CC(Nc1nc(-c2ccccc2)nc2ccccc12)c1ccccc1 (centres unmarked) [Cpd I-29]	13 ± 1 µM	–	–	IC50 (p97; p97 ATPase assay): 27 ± 14 µM
Clc1cccc(Nc2nc(NCc3ccccc3)c3ccccc3n2)c1 [II-13]	–	–	7.8 ± 1.3 µM	–
Fc1cccc(CNc2nc(Nc3cccc(Cl)c3)nc3ccccc23)c1 [III-13]	–	1.2 ± 0.2 µM	6.3 ± 1.7 µM	–
N#CC(C(=O)COC(=O)COc1cccc(Br)c1)=C1Nc2ccccc2N1 [XXXIV]	5.9 ± 0.8 µM	–	–	–
Cc1ccc(CNc2nc(NCc3ccccc3)c3ccccc3n2)cc1 [IV-1]	–	–	1.5 ± 0.4 µM	–
COc1cccc(CNc2nc(NCc3ccccc3)c3ccccc3n2)c1 [IV-15]	–	–	2.5 ± 0.8 µM	–

Structure (SMILES)	IC50 [1, 2]	IC50 (p97; [3])	IC50 [1, 4]	other results
Clc1ccc2c(NCc3ccccc3)nc(-c3ccccc3)nc2c1 [Cpd I-32]	12 ± 4 µM	–	–	–
CCCOc1ccc(C(=O)CCC(=O)OCC(=O)C(C#N)=C2Nc3ccccc3N2)cc1 [XXXV]	6.1 ± 0.6 µM	–	–	–
N#CC(C(=O)COC(=O)CCC(=O)c1ccc2c(c1)OCCO2)=C1Nc2ccccc2N1 [XXXIX]	6.3 ± 0.6 µM	–	–	–
c1ccc(CNc2nc(Nc3ccccc3)nc3ccccc23)cc1 [II-1]	–	–	3.1 ± 0.4 µM	–
COc1cccc2c(NCc3ccccc3)nc(Nc3cccc(Cl)c3)nc12 [XI-16]	–	–	5.4 ± 1 µM	–
Cc1ccc(-c2nc(NCc3ccccc3)c3ccc(Cl)cc3n2)cc1 [I-33]	24 ± 5 µM	–	–	–
CCc1ccc(Nc2nc(N)nc(CCl)n2)cc1 [XXIX]	18 ± 3 µM	–	–	–
Clc1ccccc1CNc1nc(-c2ccccc2)nc2ccccc12 [Cpd I-14]	11 ± 3 µM	–	–	–
Brc1cccc(CNc2nc(NCc3ccccc3)c3ccccc3n2)c1 [IV-14]	–	–	2.8 ± 0.4 µM	–
N#CC(C(=O)COC(=O)c1ccccc1Cc1ccccc1)=C1Nc2ccccc2N1 [XXXIII]	3.4 ± 0.6 µM	–	–	–
Nc1nc(CCl)nc(N2CCCc3ccccc32)n1 [XXVIII]	17 ± 3 µM	–	–	–
CN(Cc1ccccc1)c1nc(-c2ccccc2)nc2ccccc12 [Cpd I-25]	17 ± 5 µM	–	–	–
FC(F)(F)c1ccc(CNc2nc(NCc3ccccc3)c3ccccc3n2)cc1 [IV-16]	–	–	2.3 ± 0.3 µM	–
N#CC(C(=O)COC(=O)C1COc2ccccc2O1)=C1Nc2ccccc2N1 (centres unmarked) [XL]	10 ± 1.4 µM	–	–	–
Fc1cccc(CNc2nc(NCc3ccccc3)c3ccccc3n2)c1 [IV-13]	–	–	2.8 ± 0.4 µM	–
Cc1cccc(C)c1OCC(=O)OCC(=O)C(C#N)=C1Nc2ccccc2N1 [XXXVI]	15 ± 2 µM	–	–	–
Fc1cccc(Nc2nc(NCc3ccccc3)c3ccccc3n2)c1 [II-14]	–	–	2.7 ± 0.4 µM	–
c1ccc(CNc2nc(N3CCOCC3)nc3ccccc23)cc1 [XLIV]	36 ± 9 µM	–	–	–
COc1cccc2c(NCc3ccccc3)nc(Nc3cccc(F)c3)nc12 [XI-17]	–	–	4.8 ± 0.7 µM	–
N#CC(C(=O)COC(=O)CNc1ccc(C(F)(F)F)cc1[N+](=O)[O-])=C1Nc2ccccc2N1 [XLI]	6.5 ± 0.8 µM	–	–	–
Clc1ccccc1-c1nc(NCc2ccccc2)c2ccccc2n1 [I-3]	–	–	8 ± 3 µM	–
N#CC(C(=O)COC(=O)COc1ccc(Cl)cc1)=C1Nc2ccccc2N1 [XXXII]	2.6 ± 0.2 µM	–	–	–
Nc1nc(CCl)nc(N2CCc3ccccc32)n1 [XXVI]	10.4 ± 1.5 µM	–	–	–
